US10716827B2 (priority 2015, dated 2020)

Target: GLP-1R (Homo sapiens, UniProt P43220)
Sequence (P43220 24-463, species assumed): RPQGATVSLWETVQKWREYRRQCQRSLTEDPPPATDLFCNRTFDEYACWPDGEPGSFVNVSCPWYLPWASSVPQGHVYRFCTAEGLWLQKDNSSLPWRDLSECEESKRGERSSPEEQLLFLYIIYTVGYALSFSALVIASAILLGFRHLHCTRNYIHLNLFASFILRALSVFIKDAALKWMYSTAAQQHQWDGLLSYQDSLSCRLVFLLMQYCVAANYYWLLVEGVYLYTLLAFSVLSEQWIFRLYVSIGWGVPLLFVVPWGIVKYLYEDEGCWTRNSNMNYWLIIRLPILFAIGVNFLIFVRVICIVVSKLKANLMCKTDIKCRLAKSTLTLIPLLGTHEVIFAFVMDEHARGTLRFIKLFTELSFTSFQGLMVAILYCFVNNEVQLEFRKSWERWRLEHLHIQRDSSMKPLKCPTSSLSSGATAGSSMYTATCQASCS

Substance: HGEGTFTSDLS(Kazido)QMEEEAVRLFIENWLKNGGPSSGAPSSGAPPPS [compound 1]
- % Change in FRET at 100 nM (100 nM, undigested): −12 ± 0.01%
- potency compared to unmodified Ex-4 (azido modification at K12): no significant reduction in potency
